According to the supplement of paper PMC10307832:

Key:
Assay in all cases: relative viability (nuclei count vs DMSO), 5 days (fraction); higher = more cells survive
Dabrafenib + Crizotinib = compound: CC(C)(C)c1nc(-c2cccc(NS(=O)(=O)c3c(F)cccc3F)c2F)c(-c2ccnc(N)n2)s1 [Dabrafenib] + C[C@@H](Oc1cc(-c2cnn(C3CCNCC3)c2)cnc1N)c1c(Cl)ccc(F)c1Cl [Crizotinib] (partner 1 µM)
Method in brief: (§1)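 The day after seeding in 1536-well plates, lung cancer cell lines were treated by pin tool with a single drug, or with a fixed anchor-drug dose together with five library-drug doses (not always all listed) in √10 steps. After 5 days, a combined fix-and-stain solution (final 0.05% Triton X-100, 1% formaldehyde, 1 ug/ml Hoechst) was added. Nuclei counted on 4× images gave relative viability as treated counts over vehicle counts, reported as the median of duplicate plates.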

Dabrafenib + Luminespib = compound: CC(C)(C)c1nc(-c2cccc(NS(=O)(=O)c3c(F)cccc3F)c2F)c(-c2ccnc(N)n2)s1 [Dabrafenib] + CCNC(=O)c1noc(-c2cc(C(C)C)c(O)cc2O)c1-c1ccc(CN2CCOCC2)cc1 [Luminespib] (partner 0.01 µM)
Method in brief: as §1

Dabrafenib + Pemetrexed = compound: CC(C)(C)c1nc(-c2cccc(NS(=O)(=O)c3c(F)cccc3F)c2F)c(-c2ccnc(N)n2)s1 [Dabrafenib] + Nc1nc2[nH]cc(CCc3ccc(C(=O)N[C@@H](CCC(=O)O)C(=O)O)cc3)c2c(=O)[nH]1 [Pemetrexed] (partner 0.2 µM)
Method in brief: as §1

VX-702 + OSI-027 = compound: NC(=O)c1ccc(N(C(N)=O)c2c(F)cccc2F)nc1-c1ccc(F)cc1F [VX-702] + COc1cccc2cc(-c3nc([C@H]4CC[C@H](C(=O)O)CC4)n4ncnc(N)c34)[nH]c12 [OSI-027] (partner 0.5 µM)
Method in brief: as §1

Cell Line	relative viability (Dabrafenib + Crizotinib; first compound 0.009487 µM)	relative viability (Dabrafenib + Crizotinib; first compound 0.03 µM)	relative viability (Dabrafenib + Crizotinib; first compound 0.09487 µM)	relative viability (Dabrafenib + Crizotinib; first compound 0.3 µM)	relative viability (Dabrafenib + Luminespib; first compound 0.003 µM)	relative viability (Dabrafenib + Luminespib; first compound 0.009487 µM)	relative viability (Dabrafenib + Luminespib; first compound 0.03 µM)	relative viability (Dabrafenib + Luminespib; first compound 0.09487 µM)	relative viability (Dabrafenib + Luminespib; first compound 0.3 µM)	relative viability (Dabrafenib + Pemetrexed; first compound 0.003 µM)	relative viability (Dabrafenib + Pemetrexed; first compound 0.009487 µM)	relative viability (Dabrafenib + Pemetrexed; first compound 0.03 µM)	relative viability (Dabrafenib + Pemetrexed; first compound 0.09487 µM)	relative viability (Dabrafenib + Pemetrexed; first compound 0.3 µM)	relative viability (VX-702 + OSI-027; first compound 0.02 µM)	relative viability (VX-702 + OSI-027; first compound 0.2 µM)	relative viability (VX-702 + OSI-027; first compound 0.6325 µM)	relative viability (VX-702 + OSI-027; first compound 2 µM)	relative viability (Dabrafenib + Crizotinib; first compound 0.003 µM)
HOP-62	0.807	1.05	0.913	0.805	0.936	0.878	0.977	0.795	0.872	0.253	0.255	0.286	0.273	0.25	0.88	0.859	0.831	0.982	–
IA-LM	0.756	0.702	0.628	0.46	–	–	–	–	–	–	–	–	–	–	–	–	–	–	1.01
LC-2-ad	0.398	0.389	0.426	0.447	–	1.16	1.27	1.04	0.947	0.271	0.283	0.25	0.269	0.286	0.844	0.814	0.999	0.949	0.42
LCLC-97TM1	0.325	0.406	–	0.287	0.764	0.745	0.584	0.756	0.775	–	0.198	0.198	0.124	0.139	0.424	0.595	0.37	0.404	–
LCLC-103H	1.13	0.935	1.17	1.06	0.971	1.01	0.923	0.897	1.01	0.473	0.455	0.532	0.42	0.4	0.49	0.485	0.417	0.458	1
LK-2	0.223	–	0.254	0.197	0.185	0.187	–	0.153	0.157	0.249	0.239	–	0.253	0.301	0.21	0.211	0.167	0.183	0.211
LOU-NH91	0.759	0.717	0.672	0.757	0.262	0.36	0.28	0.343	0.294	–	0.34	0.403	0.409	0.409	0.767	0.734	0.751	0.528	–
LU99A	0.525	0.466	0.562	0.484	0.203	0.212	0.225	0.3	0.29	0.25	0.192	0.181	0.161	0.183	0.339	0.323	0.312	0.283	0.585
LXF-289	0.833	0.892	0.804	0.883	0.651	0.73	0.675	0.589	0.752	0.751	0.872	0.965	0.813	1.08	0.786	0.784	0.772	0.683	0.802
NCI-H23	0.603	0.541	0.421	0.495	–	–	0.225	0.195	0.226	–	0.67	0.504	0.7	0.597	0.604	0.643	0.688	0.559	–
NCI-H322M	1.09	–	0.876	0.941	–	1.05	0.692	0.856	0.803	–	0.711	–	0.602	0.572	0.567	0.517	0.566	0.62	–
NCI-H358	0.662	0.553	0.631	0.476	–	0.396	0.35	–	0.237	0.169	0.166	0.152	0.209	0.163	0.867	0.845	0.711	0.794	–
NCI-H441	0.746	0.694	0.593	0.697	–	0.317	0.389	0.461	0.347	–	0.232	0.255	0.259	0.263	0.564	0.547	0.5	0.544	–
NCI-H460	0.97	0.892	0.842	0.899	0.0327	0.0312	0.0334	0.042	0.0437	0.0599	0.0868	0.0634	0.0648	0.0684	0.712	0.644	0.693	0.55	0.865
NCI-H522	–	–	–	–	–	1.05	1.11	–	1.3	–	1.08	0.833	1.07	0.989	0.649	0.718	0.681	0.747	–
NCI-H727	1.01	0.791	0.909	0.84	–	0.339	0.324	–	0.414	–	–	–	–	–	0.721	0.614	0.543	0.642	–
NCI-H1299	0.91	0.961	0.882	0.806	–	–	–	–	–	–	–	–	–	–	–	–	–	–	1.01
NCI-H1395	–	–	–	–	0.663	0.755	0.661	0.657	0.567	–	0.813	0.907	0.749	0.806	0.725	0.642	0.663	0.677	–
NCI-H1648	–	–	–	–	–	–	–	–	–	0.746	0.781	–	0.654	0.738	0.278	0.275	0.251	0.253	–
NCI-H1703	0.76	0.584	0.609	0.729	–	–	–	–	–	–	–	–	–	–	–	–	–	–	1.09
NCI-H1793	–	–	–	–	–	0.231	–	–	0.175	–	1.08	–	0.911	1.17	0.292	0.217	0.235	0.218	–
NCI-H2342	–	–	–	–	0.666	0.563	0.707	0.769	0.842	0.751	0.779	0.747	0.765	0.858	0.632	0.651	0.644	0.692	–
SW 900	–	–	–	–	–	0.186	0.166	–	0.214	–	0.494	–	0.477	0.45	0.565	0.676	0.592	0.765	–
